Measurements: patent US20220274961A1, “SUBSTITUTED FUSED BI- OR TRI- HETEROCYCLIC COMPOUNDS AS EHMT2 INHIBITORS” (priority 2016, published 2022)
Read-outs that look alike come from different tables or passages of the source.

Experiments:
human EHMT2 913-1193 = target: T1, human EHMT2 913-1193 (Homo sapiens, UniProt Q96KQ7); experiment: biochemical
T1 construct: recombinant purified human EHMT2 913-1193, Viva; purchased Viva
T1 sequence (Q96KQ7 913-1193): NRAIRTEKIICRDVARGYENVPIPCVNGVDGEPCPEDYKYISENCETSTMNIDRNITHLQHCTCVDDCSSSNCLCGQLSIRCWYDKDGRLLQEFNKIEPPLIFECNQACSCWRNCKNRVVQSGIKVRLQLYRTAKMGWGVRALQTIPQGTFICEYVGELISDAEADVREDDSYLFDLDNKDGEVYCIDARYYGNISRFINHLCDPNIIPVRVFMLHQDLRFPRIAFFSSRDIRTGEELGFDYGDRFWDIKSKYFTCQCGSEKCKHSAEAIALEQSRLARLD
Source text: Biotinylated histone peptides were synthesized by Biopeptide and HPLC-purified to >95% purity. Streptavidin Flashplates and seals were purchased from PerkinElmer and 384 Well V-bottom Polypropylene Plates were from Greiner. ^3H-labeled S-adenosylmethionine (^3H-SAM) was obtained from American Radiolabeled Chemicals with a specific activity of 80 Ci/mmol. Unlabeled SAM and S-adenosylhomocysteine (SAH) were obtained from American Radiolabeled Chemicals and Sigma-Aldrich respectively. […] 384-well Flashplates and 96-well filter binding plates were read on a TopCount microplate reader (PerkinElmer). Compound serial dilutions were performed on a Freedom EVO (Tecan) and spotted into assay plates using a Thermo Scientific Matrix PlateMate (Thermo Scientific). Reagent cocktails were added by Multidrop Combi (Thermo Scientific).
General Procedure for EHMT2 Enzyme Assay on Histone Peptide Substrate. 10-point curves of test compounds were made on a Freedom EVO (Tecan) using serial 3-fold dilutions in DMSO, beginning at 2.5 mM (final top concentration of compound was 50 μM and the DMSO was 2%). A 1 μL aliquot of the inhibitor dilution series was spotted in a polypropylene 384-well V-bottom plate (Greiner) using a Thermo Scientific Matrix PlateMate (Thermo Scientific). […] Reactions were incubated for 60 minutes at room temperature and quenched with 10 μL per well of 400 μM unlabeled SAM, then transferred to a 384-well streptavidin Flashplate (PerkinElmer) and washed in a Biotek ELx-405 well washer with 0.1% Tween after 60 minutes. 384-well Flashplates were read on a TopCount microplate reader (PerkinElmer).

EHMT1 = target: T2, EHMT1 (Homo sapiens, UniProt Q9H9B1); experiment: EHMT1 PEP; assay type: biochemical
T2 sequence (Q9H9B1 1-1298): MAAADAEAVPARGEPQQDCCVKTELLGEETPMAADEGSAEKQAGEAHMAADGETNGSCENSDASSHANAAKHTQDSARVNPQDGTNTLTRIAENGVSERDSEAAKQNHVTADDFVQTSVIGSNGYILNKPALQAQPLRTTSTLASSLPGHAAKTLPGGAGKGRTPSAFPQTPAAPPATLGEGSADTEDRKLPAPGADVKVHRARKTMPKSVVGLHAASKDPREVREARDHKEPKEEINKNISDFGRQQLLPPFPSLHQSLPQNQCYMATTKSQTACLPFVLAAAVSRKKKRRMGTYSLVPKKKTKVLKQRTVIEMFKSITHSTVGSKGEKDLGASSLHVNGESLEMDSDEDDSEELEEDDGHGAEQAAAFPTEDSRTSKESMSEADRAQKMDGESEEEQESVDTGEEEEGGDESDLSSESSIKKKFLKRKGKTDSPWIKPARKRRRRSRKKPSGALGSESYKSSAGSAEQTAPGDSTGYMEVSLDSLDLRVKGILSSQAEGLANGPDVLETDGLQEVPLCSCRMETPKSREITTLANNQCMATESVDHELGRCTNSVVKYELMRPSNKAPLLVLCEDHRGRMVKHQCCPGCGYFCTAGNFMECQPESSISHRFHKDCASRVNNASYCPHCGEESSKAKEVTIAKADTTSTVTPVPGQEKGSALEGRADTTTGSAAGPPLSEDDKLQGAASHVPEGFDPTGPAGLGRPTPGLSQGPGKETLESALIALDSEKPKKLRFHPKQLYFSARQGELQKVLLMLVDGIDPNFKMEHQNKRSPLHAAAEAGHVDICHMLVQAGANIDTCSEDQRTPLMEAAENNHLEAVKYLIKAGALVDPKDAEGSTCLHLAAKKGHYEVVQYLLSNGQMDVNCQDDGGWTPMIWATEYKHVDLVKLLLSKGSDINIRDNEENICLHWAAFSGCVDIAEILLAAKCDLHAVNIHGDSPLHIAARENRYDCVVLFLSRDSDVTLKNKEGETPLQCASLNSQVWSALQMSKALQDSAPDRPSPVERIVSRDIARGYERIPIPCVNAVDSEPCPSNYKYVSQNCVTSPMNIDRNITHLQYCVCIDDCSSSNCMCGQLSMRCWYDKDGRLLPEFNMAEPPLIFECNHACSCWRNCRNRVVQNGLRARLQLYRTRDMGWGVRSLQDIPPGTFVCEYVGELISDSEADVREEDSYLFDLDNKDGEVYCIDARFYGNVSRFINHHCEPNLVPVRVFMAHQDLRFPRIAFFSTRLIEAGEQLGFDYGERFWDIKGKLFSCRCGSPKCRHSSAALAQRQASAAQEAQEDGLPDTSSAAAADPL

[1] = recombinant human EHMT2 913-1193, histone H3 1-15 peptide, 3H-SAM, balanced conditions, read-out: EHMT2 PEP (IC50 μM)

| SMILES | IC50 (human EHMT2 913-1193; [1]) | IC50 (EHMT1) | IC50 (human EHMT2 913-1193) |
| --- | --- | --- | --- |
| COc1cc2sc(N)nc2cc1OCCCN1CCCC1 [Compound 6, 6-methoxy-5-[3-(pyrrolidin-1-yl)propoxy]-1,3-benzothiazol-2-amine] | 1 to 10 µM | 1 to 10 µM |  |
| COc1cc2c(cc1OCCCN1CCCC1)N=C(N)C21CCOC1 (stereo not shown) [Compound 7, 5′-methoxy-6′-(3-(pyrrolidin-1-yl)propoxy)-4,5-dihydro-2H-spiro[furan-3,3′-indol]-2′-amine] |  | < 0.1 µM | < 0.1 µM |
| CCN1CC(COc2cc3nc(N)n(C4CCCC4)c3cc2OC)C1 [Compound 10, 1-cyclopentyl-5-((1-ethylazetidin-3-yl)methoxy)-6-methoxy-1H-benzo[d]imidazol-2-amine] | 0.1 to 1 µM | < 0.1 µM |  |
| COc1cc2c(cc1OCCCN1CCCC1)nc(N)n2CC(F)(F)F [Compound 11, 6-methoxy-5-(3-(pyrrolidin-1-yl)propoxy)-1-(2,2,2-trifluoroethyl)-1H-benzo[d]imidazole-2-amine] | 0.1 to 1 µM | 0.1 to 1 µM |  |
| COc1cc2c(cc1OCCCN1CCCC1)nc(NCC(F)(F)F)n2C [Compound 12, 6-methoxy-1-methyl-5-(3-(pyrrolidin-1-yl)propoxy)-N-(2,2,2-trifluoroethyl)-1H-benzo[d]imidazol-2-amine] | 1 to 10 µM | 1 to 10 µM |  |
| COc1cc2c(cc1OCCCN1CCCC1)nc(N)n2CC1CCOCC1 [Compound 18] | 0.1 to 1 µM | 0.1 to 1 µM |  |
| COc1cc2c(cc1OCCCN1CCCC1)nc(C)n2C [Compound 21, 6-methoxy-1,2-dimethyl-5-(3-(pyrrolidin-1-yl)propoxy)-1H-benzo[d]imidazole] | 1 to 10 µM | 1 to 10 µM |  |
| COc1cc2c(cc1OCCCN1CCCC1)nc(C1CCCC1)n2C [Compound 22, 2-cyclopentyl-6-methoxy-1-methyl-5-(3-(pyrrolidin-1-yl)propoxy)-1H-benzo[d]imidazole] | 1 to 10 µM | 1 to 10 µM |  |
| COc1cc2c(cc1OCCCN1CCCC1)nc(C)n2C1CCCC1 [Compound 23, 1-cyclopentyl-6-methoxy-2-methyl-5-(3-(pyrrolidin-1-yl)propoxy)-1H-benzo[d]imidazole] | 0.1 to 1 µM | 1 to 10 µM |  |
| CNc1nc2cc(OC[C@H](O)CN3CCC3)c(OC)cc2n1C [Compound 25] | 0.1 to 1 µM | < 0.1 µM |  |
| CNc1nc2cc(OC[C@H](O)CN3CCCC3)c(OC)cc2n1C [Compound 26] | 0.1 to 1 µM | < 0.1 µM |  |
| CCNc1nc2cc(OCCCN3CCCC3)c(OC)cc2n1C [Compound 27] | 0.1 to 1 µM | < 0.1 µM |  |
| COc1cc2c(cc1OCCCN1CCCC1)nc(NC(C)C)n2C [Compound 28] | 0.1 to 1 µM | 0.1 to 1 µM |  |
| COc1cc2c(cc1OCCCN1CCCC1)nc(NC1CCOCC1)n2C [Compound 29] | 1 to 10 µM | 1 to 10 µM |  |
| COc1cc2c(cc1OCCCN1CCCC1)nc(NC1CCCC1)n2C [Compound 30] | 0.1 to 1 µM | 0.1 to 1 µM |  |
| CCNc1nc2cc(OC[C@H](O)CN3CCCC3)c(OC)cc2n1C [Compound 31] | 0.1 to 1 µM | < 0.1 µM |  |
| COc1cc2c(cc1OC[C@H](O)CN1CCCC1)nc(NC(C)C)n2C [Compound 32] | 0.1 to 1 µM | 0.1 to 1 µM |  |
| COc1cc2c(cc1OC[C@H](O)CN1CCCC1)nc(NC1CCCC1)n2C [Compound 33] | 0.1 to 1 µM | 0.1 to 1 µM |  |
| COc1cc2c(cc1OC[C@H](O)CN1CCCC1)nc(NCC1CC1)n2C [Compound 34] | 0.1 to 1 µM | < 0.1 µM |  |
| COc1cc2c(cc1OC[C@H](O)CN1CCCC1)nc(NC1CCOCC1)n2C [Compound 35] | 1 to 10 µM | 1 to 10 µM |  |
| CCNc1nc2cc(OCCCN3CCCC3)c(OC)cc2n1CC [Compound 39] | < 0.1 µM | < 0.1 µM |  |
| CNc1nc2cc(CNCCN3CCCC3)c(OC)cc2n1C(C)C [Compound 40] | 0.1 to 1 µM | < 0.1 µM |  |
| CCn1c(NC)nc2cc(CNCCN3CCCC3)c(OC)cc21 [Compound 41] | < 0.1 µM | < 0.1 µM |  |

Further lines, with some results ahead:

| IC50 (human EHMT2 913-1193; [1]) | IC50 (EHMT1) | SMILES | IC50 (human EHMT2 913-1193) |
| --- | --- | --- | --- |
| < 0.1 µM | < 0.1 µM | COc1cc2[nH]c(N)nc2cc1OCCCN1CCCC1 [Compound 1, 6-methoxy-5-(3-(pyrrolidin-1-yl)propoxy)-1H-benzo[d]imidazol-2-amine] |  |
| < 0.1 µM | < 0.1 µM | COc1cc2c(cc1OCCCN1CCCC1)nc(N)n2C [Compound 2, 6-methoxy-1-methyl-5-(3-(pyrrolidin-1-yl)propoxy)-1H-benzo[d]imidazol-2-amine] |  |
| < 0.1 µM | < 0.1 µM | COc1cc2c(cc1OCCCN1CCCC1)nc(N)n2C1CCCC1 [Compound 3, 1-cyclopentyl-6-methoxy-5-(3-(pyrrolidin-1-yl)propoxy)-1H-benzo[d]imidazol-2-amine] |  |
| < 0.1 µM | < 0.1 µM | COc1cc2c(cc1OCCCN1CCCC1)N=C(N)C21CCOCC1 [Compound 5, 5-methoxy-6-(3-(pyrrolidin-1-yl)propoxy)-2′,3′,5′,6′-tetrahydrospiro[indole-3,4′-pyran]-2-amine] |  |
| < 0.1 µM | < 0.1 µM | CNc1nc2cc(OCCCN3CCCC3)c(OC)cc2n1C [Compound 8, 6-methoxy-N,1-dimethyl-5-(3-(pyrrolidin-1-yl)propoxy)-1H-benzo[d]imidazol-2-amine] |  |
| < 0.1 µM | < 0.1 µM | CCN1CC[C@@H](COc2cc3nc(N)n(C4CCCC4)c3cc2OC)C1 [Compound 9, 1-cyclopentyl-5-[[(3R)-1-ethylpyrrolidin-3-yl]methoxy]-6-methoxy-1H-1,3-benzodiazol-2-amine] |  |
| < 0.1 µM | < 0.1 µM | CNc1nc2cc(OCCCN3CCCC3)c(OC)cc2n1C1CCOCC1 [Compound 13, 6-methoxy-N-methyl-5-(3-(pyrrolidin-1-yl)propoxy)-1-(tetrahydro-2H-pyran-4-yl)-1H-benzo[d]imidazol-2-amine] |  |
| < 0.1 µM | < 0.1 µM | COc1cc2c(cc1OCCCN1CCCC1)nc(N)n2C(C)C [Compound 19] |  |
| < 0.1 µM | < 0.1 µM | COc1cc2c(cc1C#CCN1CCCC1)N=C(N)C21CCC1 [Compound 24, 5′-methoxy-6′-(3-(pyrrolidin-1-yl)prop-1-yn-1-yl)spiro[cyclobutane-1,3′-indol]-2′-amine] |  |
| < 0.1 µM | < 0.1 µM | CNc1nc2cc(OCCCN3CCCC3)c(OC)cc2n1C(C)C [Compound 36] |  |
| < 0.1 µM | < 0.1 µM | CNc1nc2cc(CNCCN3CCCC3)c(OC)cc2n1C [Compound 37] |  |
| < 0.1 µM | < 0.1 µM | CNc1nc2cc(OC[C@H](O)CN3CCCC3)c(OC)cc2n1C1CCCC1 [Compound 38] |  |
